Key:
[1] = biological target: T1, Mouse urotensin (mUR2) (Mus musculus, UniProt Q8VIH9); test: Radioligand binding, mouse urotensin mUR2 membranes, FlashPlate, [125I]-Urotensin II; conditions: compound at 10 μM; for A11 radioligand binding inhibition: mouse urotensin mUR2 membranes
T1 construct: purchased Perkin Elmer Biosignal
T1 sequence (Q8VIH9 1-385): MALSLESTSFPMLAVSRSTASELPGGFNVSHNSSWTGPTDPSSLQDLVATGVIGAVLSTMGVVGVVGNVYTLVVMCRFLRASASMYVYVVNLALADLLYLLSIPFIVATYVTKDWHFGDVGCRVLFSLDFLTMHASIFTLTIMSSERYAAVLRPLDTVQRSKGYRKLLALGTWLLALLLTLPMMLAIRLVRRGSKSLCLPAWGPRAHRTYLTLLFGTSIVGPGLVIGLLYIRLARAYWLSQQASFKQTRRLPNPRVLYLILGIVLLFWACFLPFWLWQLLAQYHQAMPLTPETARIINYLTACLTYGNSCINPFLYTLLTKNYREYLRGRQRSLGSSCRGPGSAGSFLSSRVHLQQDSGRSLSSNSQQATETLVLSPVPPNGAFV
Procedure, shortened: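 Cloned mouse urotensin (mUR2) receptor membranes from Perkin Elmer Biosignal were immobilized in FlashPlate microplates using a proprietary coating. Each well got 19.5 μl buffer, then 0.5 μl of DMSO, reference ligand, or compound. Adding 5 μl of [125I]-Urotensin II, diluted to 5× final concentration in binding buffer, started binding. Plates were sealed with TopSeal-A and incubated 1 hour at room temperature in the dark. Wells were counted for 30 seconds each on a TopCount after a 60-second delay, and percentage inhibition was calculated.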

[2] = biological target: T2, Human neurokinin (NK1) (Homo sapiens, UniProt P25103); test: Radioligand binding, human neurokinin NK1 membranes, filtration, [125I]-Substance P; conditions: compound at 10 μM; for A8 radioligand binding inhibition: human neurokinin NK1 membranes
T2 construct: purchased Perkin Elmer Biosignal
Procedure, shortened: (§1)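 Filtration binding on cloned human receptor membranes (1 Unit/well), [125I]-Substance P for NK1 and [3H]-Diprenorphine for KOP, 1 h at room temperature. Filters PEI-presoaked, washed with cold 50 mM Tris-HCl pH 7.4, counted by scintillation; percent inhibition calculated, reference ligand defining non-specific binding.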

[3] = biological target: T3, Human μ-opioid (MOP) (Homo sapiens, UniProt P35372); test: Radioligand binding, human μ-opioid (MOP) membranes, FlashPlate, [3H]-Naloxone; conditions: compound at 10 μM; for A7 radioligand binding inhibition: human μ-opioid (MOP) membranes
T3 construct: purchased Perkin Elmer Biosignal
Procedure, shortened: (§2)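 Cloned human receptor membranes were coated onto FlashPlate wells and incubated with radioligand and compound (added from a 0.5 mM DMSO daughter plate) for 1 hour at room temperature in the dark. Scintillation counting gave percent inhibition, with DMSO defining total and reference ligand defining non-specific binding.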

[4] = biological target: T4, Human δ-opioid (DOP) (Homo sapiens, UniProt P41143); test: Radioligand binding, human δ-opioid (DOP) membranes, FlashPlate, [3H]-Bremazocine; conditions: compound at 10 μM; for A1 radioligand binding inhibition: human δ-opioid (DOP) membranes
T4 construct: purchased Perkin Elmer Biosignal
Procedure, shortened: as §2

[5] = biological target: T5, Human Melanocortin (MC3) (Homo sapiens, UniProt P41968); test: Radioligand binding, human melanocortin MC3 membranes, FlashPlate, [125I]-NDP-αMSH; conditions: compound at 10 μM; for A3 radioligand binding inhibition: human melanocortin MC3 membranes
T5 construct: purchased Perkin Elmer Biosignal
Procedure, shortened: as §2

[6] = biological target: T6, Human Melanocortin (MC4) (Homo sapiens, UniProt P32245); test: Radioligand binding, human melanocortin MC4 membranes, FlashPlate, [125I]-NDP-αMSH; conditions: compound at 10 μM; for A4 radioligand binding inhibition: human melanocortin MC4 membranes
T6 construct: purchased Perkin Elmer Biosignal
Procedure, shortened: as §2

[7] = biological target: T7, Human melanocortin (MC5) (Homo sapiens, UniProt P33032); test: Radioligand binding, human melanocortin MC5 membranes, FlashPlate, [125I]-NDP-αMSH; conditions: compound at 10 μM; for A5 radioligand binding inhibition: human melanocortin MC5 membranes
T7 construct: purchased Perkin Elmer Biosignal
Procedure, shortened: as §2

[8] = biological target: T8, Human neuropeptide Y (NPY-Y1) (Homo sapiens, UniProt P25929); test: Radioligand binding, human neuropeptide Y NPY-Y1 membranes, FlashPlate, [125I]-PYY; conditions: compound at 10 μM; for A9 radioligand binding inhibition: human NPY-Y1 membranes
T8 construct: purchased Perkin Elmer Biosignal
T8 sequence (P25929 1-384): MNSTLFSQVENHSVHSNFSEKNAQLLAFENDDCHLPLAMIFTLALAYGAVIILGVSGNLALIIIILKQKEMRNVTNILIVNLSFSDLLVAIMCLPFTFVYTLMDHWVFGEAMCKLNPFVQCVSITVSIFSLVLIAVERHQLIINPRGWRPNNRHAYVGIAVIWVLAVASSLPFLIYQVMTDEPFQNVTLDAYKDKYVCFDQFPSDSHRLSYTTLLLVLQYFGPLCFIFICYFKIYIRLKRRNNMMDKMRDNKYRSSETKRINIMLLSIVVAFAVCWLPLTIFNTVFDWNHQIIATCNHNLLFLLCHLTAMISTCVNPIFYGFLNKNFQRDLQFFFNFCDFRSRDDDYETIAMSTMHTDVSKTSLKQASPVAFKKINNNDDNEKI
Procedure, shortened: as §2

[9] = biological target: T9, Human opioid (ORL1) (Homo sapiens, UniProt P41146); test: Radioligand binding, human opioid ORL1 membranes, FlashPlate, [125I]-Nociceptin; conditions: compound at 10 μM; for A10 radioligand binding inhibition: human ORL1 membranes
T9 construct: purchased Perkin Elmer Biosignal
Procedure, shortened: as §2

[10] = biological target: T10, Human κ-Opioid (KOP) (Homo sapiens, UniProt P41145); test: Radioligand binding, human κ-opioid (KOP) membranes, filtration, [3H]-Diprenorphine; conditions: compound at 10 μM; for A2 radioligand binding inhibition: human κ-opioid (KOP) membranes
T10 construct: purchased Perkin Elmer Biosignal
Procedure, shortened: as §1

[11] = biological target: T11, Human melanin-concentrating hormone (MCH1) (Homo sapiens, UniProt Q99705); test: Radioligand binding, human melanin-concentrating hormone MCH1 membranes, FlashPlate, [125I]-S36057; conditions: compound at 10 μM; for A6 radioligand binding inhibition: human MCH1 membranes
T11 construct: purchased Perkin Elmer Biosignal
Procedure, shortened: as §2

T5 sequence (P41968 whole entry): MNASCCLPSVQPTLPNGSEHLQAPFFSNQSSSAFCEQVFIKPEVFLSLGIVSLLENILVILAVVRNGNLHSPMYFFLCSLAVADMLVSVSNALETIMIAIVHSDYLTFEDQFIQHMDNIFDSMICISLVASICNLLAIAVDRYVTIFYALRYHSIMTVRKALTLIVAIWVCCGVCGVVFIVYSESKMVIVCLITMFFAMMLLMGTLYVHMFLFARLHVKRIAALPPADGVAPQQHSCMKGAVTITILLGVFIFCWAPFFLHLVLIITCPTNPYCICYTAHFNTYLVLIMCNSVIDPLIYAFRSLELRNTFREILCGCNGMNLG
T9 sequence (P41146 whole entry): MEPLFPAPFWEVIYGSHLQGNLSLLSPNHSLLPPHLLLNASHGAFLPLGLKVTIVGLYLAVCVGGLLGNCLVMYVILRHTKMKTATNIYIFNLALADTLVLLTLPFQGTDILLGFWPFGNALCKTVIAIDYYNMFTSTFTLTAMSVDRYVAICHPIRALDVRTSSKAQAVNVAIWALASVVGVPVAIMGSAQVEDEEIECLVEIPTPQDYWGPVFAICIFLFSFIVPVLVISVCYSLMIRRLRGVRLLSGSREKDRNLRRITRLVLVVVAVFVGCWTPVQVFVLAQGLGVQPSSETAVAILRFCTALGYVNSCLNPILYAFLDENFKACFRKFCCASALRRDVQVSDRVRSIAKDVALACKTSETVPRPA
T6 sequence (P32245 whole entry): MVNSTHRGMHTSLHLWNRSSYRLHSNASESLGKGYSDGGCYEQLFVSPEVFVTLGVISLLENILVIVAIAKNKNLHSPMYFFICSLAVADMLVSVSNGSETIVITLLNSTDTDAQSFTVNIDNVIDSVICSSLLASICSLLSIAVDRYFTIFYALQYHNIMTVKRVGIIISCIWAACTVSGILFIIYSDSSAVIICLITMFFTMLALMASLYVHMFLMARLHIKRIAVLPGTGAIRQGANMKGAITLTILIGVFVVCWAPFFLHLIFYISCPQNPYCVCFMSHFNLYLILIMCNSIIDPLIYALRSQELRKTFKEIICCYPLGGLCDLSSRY
T7 sequence (P33032 whole entry): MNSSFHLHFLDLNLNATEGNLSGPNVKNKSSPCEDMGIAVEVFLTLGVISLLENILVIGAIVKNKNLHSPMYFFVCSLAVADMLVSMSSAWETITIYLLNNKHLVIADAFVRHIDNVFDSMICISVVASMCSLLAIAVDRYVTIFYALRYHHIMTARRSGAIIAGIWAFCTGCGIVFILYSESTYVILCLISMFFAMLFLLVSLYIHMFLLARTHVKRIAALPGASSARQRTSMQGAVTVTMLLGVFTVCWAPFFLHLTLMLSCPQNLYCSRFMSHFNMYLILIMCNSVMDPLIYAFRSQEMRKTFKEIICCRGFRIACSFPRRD
T4 sequence (P41143 whole entry): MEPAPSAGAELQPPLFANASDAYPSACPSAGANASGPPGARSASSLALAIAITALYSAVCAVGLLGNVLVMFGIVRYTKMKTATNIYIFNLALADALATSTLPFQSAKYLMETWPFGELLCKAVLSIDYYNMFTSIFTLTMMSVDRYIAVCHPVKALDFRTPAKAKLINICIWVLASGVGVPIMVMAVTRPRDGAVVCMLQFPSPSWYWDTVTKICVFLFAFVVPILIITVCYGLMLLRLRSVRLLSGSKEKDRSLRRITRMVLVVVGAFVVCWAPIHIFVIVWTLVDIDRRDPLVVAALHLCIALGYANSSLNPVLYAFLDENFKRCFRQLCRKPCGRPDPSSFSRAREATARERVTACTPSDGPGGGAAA
T10 sequence (P41145 whole entry): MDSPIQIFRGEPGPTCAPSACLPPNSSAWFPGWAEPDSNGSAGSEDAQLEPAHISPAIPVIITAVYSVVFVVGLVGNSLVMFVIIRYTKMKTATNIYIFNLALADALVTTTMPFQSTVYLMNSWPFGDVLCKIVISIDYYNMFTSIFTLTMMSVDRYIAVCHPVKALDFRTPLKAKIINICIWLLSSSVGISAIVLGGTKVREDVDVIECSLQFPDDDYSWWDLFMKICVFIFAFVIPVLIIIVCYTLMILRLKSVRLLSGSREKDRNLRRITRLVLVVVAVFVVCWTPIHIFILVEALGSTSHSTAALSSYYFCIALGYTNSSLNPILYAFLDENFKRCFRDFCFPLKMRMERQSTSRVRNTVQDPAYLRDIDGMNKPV
T11 sequence (Q99705 whole entry): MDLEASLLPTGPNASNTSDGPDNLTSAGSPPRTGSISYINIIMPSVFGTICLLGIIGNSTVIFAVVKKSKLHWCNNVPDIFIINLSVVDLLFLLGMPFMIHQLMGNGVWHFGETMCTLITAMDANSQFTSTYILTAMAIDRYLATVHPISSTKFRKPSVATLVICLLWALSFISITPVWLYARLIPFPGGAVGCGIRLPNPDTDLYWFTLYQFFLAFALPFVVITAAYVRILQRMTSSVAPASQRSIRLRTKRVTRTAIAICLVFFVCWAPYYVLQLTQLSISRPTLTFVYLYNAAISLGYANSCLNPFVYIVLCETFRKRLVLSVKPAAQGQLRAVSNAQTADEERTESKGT
T2 sequence (P25103 whole entry): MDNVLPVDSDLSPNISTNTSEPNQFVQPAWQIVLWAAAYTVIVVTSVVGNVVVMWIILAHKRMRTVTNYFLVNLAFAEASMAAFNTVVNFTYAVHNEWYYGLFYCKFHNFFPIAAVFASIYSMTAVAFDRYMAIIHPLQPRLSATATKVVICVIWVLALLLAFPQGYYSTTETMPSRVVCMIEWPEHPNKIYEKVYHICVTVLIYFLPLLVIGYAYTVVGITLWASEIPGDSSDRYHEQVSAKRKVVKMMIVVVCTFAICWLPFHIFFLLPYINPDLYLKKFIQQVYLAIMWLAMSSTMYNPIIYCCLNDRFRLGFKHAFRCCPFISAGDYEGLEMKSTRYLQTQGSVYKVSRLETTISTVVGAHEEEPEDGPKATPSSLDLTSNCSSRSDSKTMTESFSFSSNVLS
T3 sequence (P35372 whole entry): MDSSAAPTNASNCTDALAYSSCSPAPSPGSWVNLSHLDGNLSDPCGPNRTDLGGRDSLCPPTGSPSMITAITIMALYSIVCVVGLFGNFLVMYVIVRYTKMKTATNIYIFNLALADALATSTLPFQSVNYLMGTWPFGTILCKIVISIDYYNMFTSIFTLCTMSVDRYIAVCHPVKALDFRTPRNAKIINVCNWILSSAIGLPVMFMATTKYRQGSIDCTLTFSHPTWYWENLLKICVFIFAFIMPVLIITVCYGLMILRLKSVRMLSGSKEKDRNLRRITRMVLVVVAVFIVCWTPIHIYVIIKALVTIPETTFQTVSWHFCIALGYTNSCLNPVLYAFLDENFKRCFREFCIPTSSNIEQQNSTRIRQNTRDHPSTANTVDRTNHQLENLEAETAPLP

| Structure (SMILES) | A11 radioligand binding inhibition [1] | A8 radioligand binding inhibition [2] | A7 radioligand binding inhibition [3] | A1 radioligand binding inhibition [4] | A3 radioligand binding inhibition [5] | A4 radioligand binding inhibition [6] | A5 radioligand binding inhibition [7] | A9 radioligand binding inhibition [8] | A10 radioligand binding inhibition [9] | A2 radioligand binding inhibition [10] | A6 radioligand binding inhibition [11] | other results |
| --- | --- | --- | --- | --- | --- | --- | --- | --- | --- | --- | --- | --- |
| COC[C@H]1OC(OCc2ccc3ccccc3c2)[C@H](NC(=O)CCCNC(=N)N)[C@@H](OCc2ccccc2)[C@@H]1O (stereo partly drawn) [compound 21] | − (“−” indicates less than 50% inhibition at 10 μM) | + (“+” indicates greater than 50% inhibition at 10 μM) | − (“−” indicates less than 50% inhibition at 10 μM) | − (“−” indicates less than 50% inhibition at 10 μM) | − (“−” indicates less than 50% inhibition at 10 μM) | − (“−” indicates less than 50% inhibition at 10 μM) | − (“−” indicates less than 50% inhibition at 10 μM) | − (“−” indicates less than 50% inhibition at 10 μM) | − (“−” indicates less than 50% inhibition at 10 μM) | − (“−” indicates less than 50% inhibition at 10 μM) | − (“−” indicates less than 50% inhibition at 10 μM) | – |
| COC[C@H]1OC(OCc2ccc(Cl)cc2)[C@H](NC(=O)CCNC(=N)N)[C@@H](OCc2ccc(Cl)cc2)[C@@H]1O (stereo partly drawn) [compound 38] | − (“−” indicates less than 50% inhibition at 10 μM) | + (“+” indicates greater than 50% inhibition at 10 μM) | − (“−” indicates less than 50% inhibition at 10 μM) | − (“−” indicates less than 50% inhibition at 10 μM) | − (“−” indicates less than 50% inhibition at 10 μM) | − (“−” indicates less than 50% inhibition at 10 μM) | + (“+” indicates greater than 50% inhibition at 10 μM) | − (“−” indicates less than 50% inhibition at 10 μM) | − (“−” indicates less than 50% inhibition at 10 μM) | − (“−” indicates less than 50% inhibition at 10 μM) | + (“+” indicates greater than 50% inhibition at 10 μM) | – |
| CC(=O)N[C@H]1C(NC(=O)CCN)O[C@H](CO)[C@@H](O)[C@@H]1OCc1cccc2ccccc12 (stereo partly drawn) [compound 356] | – | – | – | – | – | – | – | – | – | – | – | A11: inhibition of radioligand binding, mouse urotensin (mUR2) ([1]; [125I]-Urotensin II): − (“−” indicates less than 50% inhibition at 10 μM); A8: inhibition of radioligand binding, human neurokinin (NK1) ([2]; [125I]-Substance P): − (“−” indicates less than 50% inhibition at 10 μM); A7: inhibition of radioligand binding, human μ-opioid (MOP) ([3]; [3H]-Naloxone): − (“−” indicates less than 50% inhibition at 10 μM); A1: inhibition of radioligand binding, human δ-opioid (DOP) ([4]; [3H]-Bremazocine): − (“−” indicates less than 50% inhibition at 10 μM); A3: inhibition of radioligand binding, human melanocortin (MC3) ([5]; [125I]-NDP-αMSH): − (“−” indicates less than 50% inhibition at 10 μM); A4: inhibition of radioligand binding, human melanocortin (MC4) ([6]; [125I]-NDP-αMSH): − (“−” indicates less than 50% inhibition at 10 μM); A5: inhibition of radioligand binding, human melanocortin (MC5) ([7]; [125I]-NDP-αMSH): − (“−” indicates less than 50% inhibition at 10 μM); A9: inhibition of radioligand binding, human neuropeptide Y (NPY-Y1) ([8]; [125I]-PYY): + (“+” indicates greater than 50% inhibition at 10 μM); A10: inhibition of radioligand binding, human opioid (ORL1) ([9]; [125I]-Nociceptin): − (“−” indicates less than 50% inhibition at 10 μM); A2: inhibition of radioligand binding, human κ-opioid (KOP) ([10]; [3H]-Diprenorphine): − (“−” indicates less than 50% inhibition at 10 μM); A6: inhibition of radioligand binding, human melanin-concentrating hormone (MCH1) ([11]; [125I]-S36057): − (“−” indicates less than 50% inhibition at 10 μM) |
| CO[C@H]1[C@H](O)[C@@H](COCc2ccc(Cl)cc2)OC(OCc2ccc3ccccc3c2)[C@@H]1NC(=O)CCCNC(=N)N (stereo partly drawn) [compound 81] | − (“−” indicates less than 50% inhibition at 10 μM) | + (“+” indicates greater than 50% inhibition at 10 μM) | + (“+” indicates greater than 50% inhibition at 10 μM) | − (“−” indicates less than 50% inhibition at 10 μM) | + (“+” indicates greater than 50% inhibition at 10 μM) | + (“+” indicates greater than 50% inhibition at 10 μM) | + (“+” indicates greater than 50% inhibition at 10 μM) | − (“−” indicates less than 50% inhibition at 10 μM) | − (“−” indicates less than 50% inhibition at 10 μM) | + (“+” indicates greater than 50% inhibition at 10 μM) | − (“−” indicates less than 50% inhibition at 10 μM) | – |
| COC[C@H]1OC(OCc2ccc(Cl)cc2)[C@H](NC(=O)CCNC(=N)N)[C@@H](OCc2ccc(-c3ccccc3)cc2)[C@@H]1O (stereo partly drawn) [compound 29] | − (“−” indicates less than 50% inhibition at 10 μM) | + (“+” indicates greater than 50% inhibition at 10 μM) | − (“−” indicates less than 50% inhibition at 10 μM) | − (“−” indicates less than 50% inhibition at 10 μM) | + (“+” indicates greater than 50% inhibition at 10 μM) | + (“+” indicates greater than 50% inhibition at 10 μM) | + (“+” indicates greater than 50% inhibition at 10 μM) | − (“−” indicates less than 50% inhibition at 10 μM) | − (“−” indicates less than 50% inhibition at 10 μM) | − (“−” indicates less than 50% inhibition at 10 μM) | + (“+” indicates greater than 50% inhibition at 10 μM) | – |
| COCC1OC(OCc2ccc3ccccc3c2)C(NC(=O)CCN)C(OCc2ccc3ccccc3c2)C1O (stereo not drawn) [compound 248] | – | – | – | – | – | – | – | – | – | – | – | A11: inhibition of radioligand binding ([1]; [125I]-Urotensin II, FlashPlate): − (“−” indicates less than 50% inhibition at 10 μM); A8: inhibition of radioligand binding ([2]; [125I]-Substance P, filtration): + (“+” indicates greater than 50% inhibition at 10 μM); A7: inhibition of radioligand binding ([3]; [3H]-Naloxone, FlashPlate): − (“−” indicates less than 50% inhibition at 10 μM); A1: inhibition of radioligand binding ([4]; [3H]-Bremazocine, FlashPlate): − (“−” indicates less than 50% inhibition at 10 μM); A3: inhibition of radioligand binding ([5]; [125I]-NDP-αMSH, FlashPlate): − (“−” indicates less than 50% inhibition at 10 μM); A4: inhibition of radioligand binding ([6]; [125I]-NDP-αMSH, FlashPlate): − (“−” indicates less than 50% inhibition at 10 μM); A5: inhibition of radioligand binding ([7]; [125I]-NDP-αMSH, FlashPlate): + (“+” indicates greater than 50% inhibition at 10 μM); A9: inhibition of radioligand binding ([8]; [125I]-PYY, FlashPlate): − (“−” indicates less than 50% inhibition at 10 μM); A10: inhibition of radioligand binding ([9]; [125I]-Nociceptin, FlashPlate): − (“−” indicates less than 50% inhibition at 10 μM); A2: inhibition of radioligand binding ([10]; [3H]-Diprenorphine, filtration): − (“−” indicates less than 50% inhibition at 10 μM); A6: inhibition of radioligand binding ([11]; [125I]-S36057, FlashPlate): − (“−” indicates less than 50% inhibition at 10 μM) |

From US20080009418A1, “Selective Inhibitors” (Alchemia LTD., priority 2004, published 2008)
